One block for each molecule: values may come before it. Where a SMILES comes first, the peptide text is derived from it. Where no end group is shown, it is not given here. The star is where a group is joined. Biotin = O=C1N[C@H]2[C@H](CS[C@H]2CCCCC(=O)*)N1
What was measured:
Human β-catenin [1] = target: T1, Human β-catenin (Homo sapiens, UniProt P35222); assay: Focal molography (FM) direct binding of β-catenin to immobilised TCO-TCF4(7–30), buffer; settings: range over 3 sensors x 3 runs
T1 construct: Variant: β-catenin (human) (Hs134–670)+TCF4(Hs1–53); purchased Proteros Biostructures
T1 sequence (P35222 134-670): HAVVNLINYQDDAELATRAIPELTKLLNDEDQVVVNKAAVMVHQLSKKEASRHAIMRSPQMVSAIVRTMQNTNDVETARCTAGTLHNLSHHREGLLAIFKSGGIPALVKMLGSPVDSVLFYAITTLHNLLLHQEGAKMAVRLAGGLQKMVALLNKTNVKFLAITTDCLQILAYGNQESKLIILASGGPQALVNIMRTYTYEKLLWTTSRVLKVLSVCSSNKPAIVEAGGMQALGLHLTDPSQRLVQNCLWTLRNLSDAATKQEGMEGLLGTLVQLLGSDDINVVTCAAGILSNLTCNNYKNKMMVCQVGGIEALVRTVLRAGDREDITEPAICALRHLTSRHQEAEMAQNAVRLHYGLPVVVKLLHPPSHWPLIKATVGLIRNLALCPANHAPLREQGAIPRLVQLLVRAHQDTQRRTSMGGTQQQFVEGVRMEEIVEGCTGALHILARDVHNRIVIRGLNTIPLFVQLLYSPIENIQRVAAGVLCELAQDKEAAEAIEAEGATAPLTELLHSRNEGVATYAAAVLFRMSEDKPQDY
Method: (§1) FM experiments were conducted using a prototype FM reader from the “Fermi” generation developed by lino Biotech AG (Supplementary Figure 10 S1 File). The flow channel shape was hexagonal (Supplementary Figure 9 A&C S1 File) and the parallel region measured 12.0 x 1.9 x 0.1 mm. Only 18 molograms were recorded per measurement in order to save computing power for faster sampling rates of the intensities of the single molograms. Thus, the lower part of the double flow chamber was used. In all FM experiments, the same running buffer as in SPR was used. Samples in glass vials were injected from the autosampler (Alias, Spark Holland) and transferred with a syringe pump (Precision Syringe Drive/4, Hamilton) to the flow channel for 17 seconds at a flow rate of 400 µL/min (sample delivery step). […] During the association phase, the sample was passed through the flow chamber for one minute at a flow rate of 50 µL/min. To prevent the recording of the dilutive end of the sample, a fast flow rate of 500 µL/min was applied for two minutes to record the dissociation phase, followed by additional two minutes at a flow rate of 50 µL/min. For the regeneration, regeneration solution was injected from glass vials into the autosampler loop. The regeneration solution was passed through the flow chamber for three minutes at a flow rate of 100 µL/min.
(§2) A sensor chip of FM measured 9 x 18 mm. […]

Human β-catenin [2] = target: T1, Human β-catenin; assay: Focal molography (FM) direct binding of β-catenin to immobilised TCO-TCF4(7–30), RKO cell lysate; settings: cell lysate 1 Mio cells/mL, range over sensors and runs
Method: as §1, §2

Human β-catenin [3] = target: T1, Human β-catenin; assay: SPR direct binding of β-catenin to immobilised biotinylated TCF4(7–30) in buffer; settings: only one Hill slope
Method: (§3) For all SPR experiments, the running buffer consisting of 10 mM HEPES, 150 mM NaCl, 0.01% (v/v) P20, 1% (v/v) glycerol, 0.01% (v/v) BSA and 2% (v/v) DMSO at pH 7.4 was used. The TCF(7–30) peptide ([…]-K-biotin-amide) peptide was obtained from Biosyntan GmbH. Experiments were conducted at room temperature on a Biacore T200 (GE Healthcare, Uppsala, Sweden). The peptide was immobilized onto a Series S sensor chip SA (10352113, Cytiva, Uppsala, Sweden). Following the manufacturer’s protocol, the sensor was first prepared, and the peptide was injected at a concentration of 10 nM at a flow rate of 10 µL/min. Immobilization was achieved via biotin-streptavidin interaction to a level of 5, 25 and 50 RU in three different flow channels respectively. […] Binding analysis was monitored on all four flow channels with sample association time of one minute and dissociation time of four minutes at a flow rate of 50 µL/min. […]
(§4) The equilibrium dissociation constant (KD) and half maximal inhibitory concentration (IC50) were determined from binding signals collected in direct binding and competition experiments, respectively. […]
(§5) The SPR data was visualized and analyzed using GraphPad Prism 10.0.0 (Boston, Massachusetts USA, www.graphpad.com). For SPR analysis, signals recorded on the active surfaces were referenced with signals from the reference channel. […]

Human β-catenin [4] = target: T1, Human β-catenin; assay: SPR competition: free TCF4(7–51) with 250 nM β-catenin over immobilised TCF4(7–30), buffer; assay type: binding; settings: buffer pH 7.4, 95% confidence interval of fit
Method: as §3, §4, §5

Human β-catenin [5] = target: T1, Human β-catenin; assay: Focal molography (FM) competition: free TCF4(7–51) with 250 nM β-catenin over TCF4(7–30) sensor, buffer; assay type: binding; settings: range over 3 sensors x 3 runs
Method: as §1, §2

Human β-catenin [6] = target: T1, Human β-catenin; assay: Focal molography (FM) competition: free TCF4(7–51) with 250 nM β-catenin over TCF4(7–30) sensor, RKO cell lysate; assay type: binding; settings: cell lysate 1 Mio cells/mL
Method: as §1
A sensor chip of FM measured 9 x 18 mm. The sensing area per mologram was 400 x 400 µm with 54 molograms (6 x 9 array) being present on one sensor chip. The center to center spacing of molograms in flow direction was 690 µm and 750 µm perpendicular to the flow. The sensors used in FM were manufactured and treated following published manufacturing protocols with the difference that the photoprotective PhSNPPOC group was replaced by a more hydrophilic PySNPPOC group. To activate the ridges using reactive immersion lithography, a phase mask was placed on the surface with a layer of 0.1% (v/v) hydroxyl amine in DMSO applied in between the mask and the sensor surface. The chip was exposed at 405 nm at a dose of 4000 mJ/cm^2 with a custom-built setup. Following exposure, the chip was incubated in 1 mM methyltetrazine-4-polyethyleneglycol-N-Hydroxysuccinimide (MeTz-PEG4-NHS) dissolved in HBST (10 mM HEPES, 150 mM NaCl, 0.05% (v/v) Tween20, pH 8.0) for 1 hour. After incubation, the chip was washed sequentially with 50:50 H2O/DMSO, DMSO, Isopropanol and H2O. Next, the entire chip surface, including the grooves, was activated by flood illumination with a dose of 18 J/cm^2. The chip was washed sequentially with 50:50 MQ H2O/DMSO, DMSO, Isopropanol and MQ H2O. As a final step, the chip was incubated with 10 mM tetrazine (Tz)-PEG5-NHS in HBST (10 mM HEPES, 150 mM NaCl, 0.05% (v/v) Tween20, pH 8.0) for 1 hour and washed with isopropanol and H2O. […]

beta-catenin = target: T2, beta-catenin (Homo sapiens, UniProt P35222); assay: SPR
T2 chain: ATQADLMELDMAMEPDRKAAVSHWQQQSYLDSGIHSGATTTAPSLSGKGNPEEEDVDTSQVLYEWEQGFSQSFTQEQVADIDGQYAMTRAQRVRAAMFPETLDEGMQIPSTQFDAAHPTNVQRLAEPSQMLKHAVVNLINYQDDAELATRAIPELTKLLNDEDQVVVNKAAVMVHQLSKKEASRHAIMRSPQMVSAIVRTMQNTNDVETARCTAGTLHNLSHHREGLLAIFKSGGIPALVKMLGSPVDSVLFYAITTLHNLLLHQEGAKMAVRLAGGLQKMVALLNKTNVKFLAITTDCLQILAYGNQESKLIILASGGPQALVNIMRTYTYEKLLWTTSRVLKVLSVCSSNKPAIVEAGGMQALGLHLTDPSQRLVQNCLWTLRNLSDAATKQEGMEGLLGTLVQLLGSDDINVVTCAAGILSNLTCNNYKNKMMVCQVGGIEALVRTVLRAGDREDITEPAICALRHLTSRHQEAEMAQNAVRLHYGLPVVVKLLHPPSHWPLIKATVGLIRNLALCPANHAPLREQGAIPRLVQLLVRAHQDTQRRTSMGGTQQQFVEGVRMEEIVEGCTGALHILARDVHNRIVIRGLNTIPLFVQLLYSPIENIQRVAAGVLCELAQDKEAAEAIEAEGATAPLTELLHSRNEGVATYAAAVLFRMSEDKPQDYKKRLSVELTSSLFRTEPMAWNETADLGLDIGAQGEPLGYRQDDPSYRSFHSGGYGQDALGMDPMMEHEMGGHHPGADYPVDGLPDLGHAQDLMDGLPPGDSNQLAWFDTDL

Kd (Human β-catenin [1]): 68 to 160 nM | Kd (Human β-catenin [2]): 100 to 140 nM
Molecule: CC[C@H](C)[C@H](NC(=O)[C@H](CC(C)C)NC(=O)[C@H](CCC(=O)O)NC(=O)[C@H](CC(=O)O)NC(=O)[C@H](CC(N)=O)NC(=O)[C@H](C)NC(=O)CNC(=O)[C@H](CC(C)C)NC(=O)[C@H](CC(=O)O)NC(=O)[C@H](CC(=O)O)NC(=O)CNC(=O)CNC(=O)CN)C(=O)N[C@@H](CO)C(=O)N[C@@H](Cc1ccccc1)C(=O)N[C@@H](CCCCN)C(=O)N[C@@H](CC(=O)O)C(=O)N[C@@H](CCC(=O)O)C(=O)NCC(=O)N[C@@H](CCC(=O)O)C(=O)N[C@@H](CCC(N)=O)C(=O)N[C@@H](CCC(=O)O)C(=O)N[C@@H](CCC(=O)O)C(=O)N[C@@H](CCCCN)C(=O)O [TCF4(7–30)] (H-GGGDDLGANDELISFKDEGEQEEK-OH)

Hill slope of the dose-response (Human β-catenin [3]): 1.21
Molecule: CC[C@H](C)[C@H](NC(=O)[C@H](CC(C)C)NC(=O)[C@H](CCC(=O)O)NC(=O)[C@H](CC(=O)O)NC(=O)[C@H](CC(N)=O)NC(=O)[C@H](C)NC(=O)CNC(=O)[C@H](CC(C)C)NC(=O)[C@H](CC(=O)O)NC(=O)[C@H](CC(=O)O)NC(=O)CNC(=O)CNC(=O)CN)C(=O)N[C@@H](CO)C(=O)N[C@@H](Cc1ccccc1)C(=O)N[C@@H](CCCCN)C(=O)N[C@@H](CC(=O)O)C(=O)N[C@@H](CCC(=O)O)C(=O)NCC(=O)N[C@@H](CCC(=O)O)C(=O)N[C@@H](CCC(N)=O)C(=O)N[C@@H](CCC(=O)O)C(=O)N[C@@H](CCC(=O)O)C(=O)N[C@@H](CCCCN)C(=O)N[C@@H](CCCCNC(=O)CCCC[C@@H]1SC[C@@H]2NC(=O)N[C@@H]21)C(N)=O [biotinylated TCF4(7–30)] (H-GGGDDLGANDELISFKDEGEQEEKK(Biotin)-NH2; N-terminus assumed)

IC50 (Human β-catenin [4]): 95 to 115 nM | IC50 (Human β-catenin [5]): 110 to 200 nM | IC50 (Human β-catenin [6]; Sensor 1, average of three runs, SD, read-out: IC50, Average ± SD): 170 nM | IC50 (Human β-catenin [6]; Sensor 2, average of three runs, SD, read-out: IC50, Average ± SD): 160 nM | IC50 (Human β-catenin [6]; Sensor 3, average of three runs, SD, read-out: IC50, Average ± SD): 140 nM | IC50 (Human β-catenin [6]; range over sensors and runs, read-out: IC50): 140 to 170 nM
Molecule: GGGDDLGANDELISFKDEGEQEEKSSENSSAERDLADVKSSLVNE [TCF4(7–51)]

Kd (beta-catenin): ~108 nM
Molecule: GGGDDLGANDELISFKDEGEQEEKSSENSSAERDLADVKSSLVNE [TCF4 peptide TCF(7-51) 7-51]

From PMC12483217, “Exploring β-catenin and TCF4 interaction in complex environments by means of novel biosensing platform focal molography” (PLOS One, 2025)
